Measurements reported in patent US6380238B1, “Indoline derivatives as 5-HT2B and or 5-HTC receptor ligands” (Vernalis Research Limited, priority 1998, dated 2002).
Counter-ions that a name gives are not always drawn. Like-named read-outs stand apart in the source and are kept apart here.

What was measured:
[1] = target: 5-HT2A receptor (Homo sapiens, UniProt P28223); assay: Functional activity, FLIPR calcium assay in CHO cells expressing human 5-HT2A; assay type: cell-based; set-up: expressed in transfected cells; host or cells: CHO cells; conditions: for Emax: CHO, read-out: h5-HT2A Relative Efficacy (%)
Experimental: (§1) The functional activity of compounds of formula (I) was assayed using a Fluorimetric Imaging Plate reader (FLIPR). CHO cells expressing the human 5-HT2C or human 5-HT2A receptors were counted and plated into standard 96 well microtitre plates on the day before testing to give a confluent monolayer. The cells were then dye loaded with the calcium sensitive dye, Fluo-3-AM. Unincorporated dye was removed using an automated cell washer to leave a total volume of 100 μL/well of assay buffer (Hanks balanced salt solution containing 20 mM Hepes and 2.5 mM probenecid). The drug (dissolved in 50 μL of the assay buffer) was added at a rate of 70 μL/sec to each well of the FLIPR 96 well plate during fluorescence measurements. The measurements were taken at 1 sec intervals and the maximum fluorescent signal was measured (approx 10-15 secs after drug addition) and compared with the response produced by 10 μM 5-HT (defined as 100%) to which it was expressed as a percentage response (relative efficacy). Dose response curves were constructed using Graphpad Prism (Graph Software Inc.).

[2] = target: T1, 5-HT2C receptor (Homo sapiens, UniProt P28335); assay: Functional activity, FLIPR calcium assay in CHO cells expressing human 5-HT2C; assay type: cell-based; set-up: expressed in transfected cells; host or cells: CHO cells; conditions: for Emax: CHO, read-out: h5-HT2C Relative Efficacy (%)
T1 sequence (P28335 33-458): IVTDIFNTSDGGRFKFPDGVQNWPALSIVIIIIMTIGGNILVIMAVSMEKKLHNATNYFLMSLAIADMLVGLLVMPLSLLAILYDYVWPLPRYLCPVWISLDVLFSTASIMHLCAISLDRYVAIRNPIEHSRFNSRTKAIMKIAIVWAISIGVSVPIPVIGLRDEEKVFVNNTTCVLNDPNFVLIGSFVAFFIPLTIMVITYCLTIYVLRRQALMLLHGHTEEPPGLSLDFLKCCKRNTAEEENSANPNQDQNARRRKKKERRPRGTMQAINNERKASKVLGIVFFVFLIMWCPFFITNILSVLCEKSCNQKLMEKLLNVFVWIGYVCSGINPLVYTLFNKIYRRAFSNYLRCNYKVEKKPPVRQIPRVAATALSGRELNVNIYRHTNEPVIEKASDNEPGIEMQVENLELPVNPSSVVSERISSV
Experimental: as §1

[3] = FLIPR, CHO cells, Fluo-3-AM, read-out: h5-HT2C EC50

Chain of 5-HT2A receptor (P28223 whole entry): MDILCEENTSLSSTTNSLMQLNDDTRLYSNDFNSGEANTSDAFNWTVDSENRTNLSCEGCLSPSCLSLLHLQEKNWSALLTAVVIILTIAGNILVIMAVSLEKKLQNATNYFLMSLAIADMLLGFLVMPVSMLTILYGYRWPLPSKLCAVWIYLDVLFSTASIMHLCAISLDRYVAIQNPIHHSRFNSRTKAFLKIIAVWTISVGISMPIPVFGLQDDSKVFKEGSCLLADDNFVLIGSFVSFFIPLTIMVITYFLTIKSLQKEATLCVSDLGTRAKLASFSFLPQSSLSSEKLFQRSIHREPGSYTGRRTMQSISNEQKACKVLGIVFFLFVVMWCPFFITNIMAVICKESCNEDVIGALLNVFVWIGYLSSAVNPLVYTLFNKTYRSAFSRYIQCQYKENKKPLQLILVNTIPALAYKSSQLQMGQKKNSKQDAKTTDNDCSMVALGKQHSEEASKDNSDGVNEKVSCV

Row | Compound | melting point | EC50 [1] | Emax [1] | EC50 [2] | Emax [2] | further results
1 | COc1ccc2c(c1)N(CC(C)N)CC2 (racemic) (as salt: hydrochloride) [Example 2, (RS)-1-(6-Methoxyindolin-1-yl)-2-propylamine Hydrochloride] | 142 to 143 °C |  |  |  |  | 
2 | CCc1cccc2c1N(C[C@H](C)N)CC2 [Example 37] |  | 2730 nM | 27% | 391 nM | 69% | 
3 | CC(N)CN1CCc2ccc(Cl)cc21 (racemic) (as salt: hydrochloride) [Example 1, (RS)-1-(6-Chloroindolin-1-yl)-2-propylamine Hydrochloride] | 262 °C |  |  |  |  | 
4 | C[C@H](N)CN1CCc2ccc(Cl)c(F)c21 [Example 27] |  | 1980 nM | 41% | 233 nM | 75% | 
5 | C[C@H](N)CN1CCc2cc(Br)ccc21 [Example 33] |  | 2930 nM | 51% | 257 nM | 75% | 
6 | CCSc1cc2c(cc1F)CCN2C[C@H](C)N [Example 31] |  | 314 nM | 72% | 2 nM | 92% | 
7 | CC(N)CN1CCc2c(OCc3ccccc3)cccc21 (stereo not shown) (as salt: HCl) | 188 to 190 °C |  |  |  |  | 
8 | CCc1cccc2c1N(C[C@H](C)N)CC2 (as salt: fumarate) [Example 37] | 182 to 183 °C |  |  |  |  | 
9 | C[C@@H](CN1CCc2ccc(Br)cc21)NCc1ccncc1 (as salt: HCl) | 202 to 204 °C |  |  |  |  | 
10 | C[C@H](N)CN1CCc2cc(F)c(Br)cc21 (as salt: fumarate) [Example 25] | 195 to 196 °C |  |  |  |  | 
11 | C[C@@H](N)CN1CCc2ccc(Br)cc21 [Example 18] |  |  | 7% | 870 nM | 27% | 
12 | C[C@@H](N)CN1CCc2ccc(Cl)c(Cl)c21 (as salt: fumarate) | 213 to 214 °C |  |  |  |  | 
13 | C[C@H](N)CN1CCc2c(F)cccc21 [Example 35] |  |  | 30% | 727 nM | 51% | 
14 | C[C@H](N)CN1CCc2c(Cl)cccc21 (as salt: fumarate) [Example 38] | 190 to 192 °C |  |  |  |  | 
15 | CC(C)CCN[C@@H](C)CN1CCc2ccc(Br)cc21 (as salt: HCl) | 161 to 163 °C |  |  |  |  | 
16 | CCCSc1ccc2c(c1)N(C[C@H](C)N)CC2 [Example 41] |  |  |  | 67 nM | 83% | 
17 | C[C@@H](CN1CCc2ccc(Br)cc21)NCC1CCCCC1 (as salt: HCl) | 208 to 210 °C |  |  |  |  | 
18 | C[C@H](N)CN1CCc2cc(F)c(I)cc21 [Example 61, (S)-1-(5-Fluoro-6-iodoindolin-1-yl)-2-propylamine Fumarate] |  | 2180 nM | 49% | 26 nM | 68% | 
19 | Cc1cc2c(cc1Cl)N(C[C@H](C)N)CC2 [Example 14] |  | 3700 nM | 55% | 2120 nM | 71% | 
20 | CC(N)CN1CCc2ccc(OCc3ccccc3)cc21 (stereo not shown) | 178 to 179 °C |  |  |  |  | 
21 | CSc1cc2c(cc1F)CCN2CC(C)N (stereo not shown) [Example 30] |  | 72 nM | 88% | 0.1 nM | 95% | 
22 | CC(C)CN[C@@H](C)CN1CCc2ccc(Br)cc21 (as salt: HCl) | 151 to 153 °C |  |  |  |  | 
23 | C[C@H](N)CN1CCc2ccc(N3CCOCC3)cc21 (as salt: fumarate) [Example 49, (S)-1-[6-(4-Morpholinyl)indolin-1-yl]-2-propylamine Fumarate] | 188 to 191 °C (dec.) |  |  |  |  | 
24 | C[C@H](N)CN1CCc2cc(F)c(F)cc21 (as salt: fumarate) [Example 22] | 165 °C (dec.) |  |  |  |  | 
25 | C[C@H](N)CN1CCc2ccc(Cl)c(Cl)c21 [Example 23] |  | 1350 nM | 34% | 354 nM | 76% | 
26 | CCSc1cc2c(cc1F)CCN2C[C@H](C)N (as salt: fumarate) [Example 31] | 164 to 168 °C |  |  |  |  | 
27 | C[C@H](N)CN1CCc2ccc(N3CCOCC3)cc21 [Example 49, (S)-1-[6-(4-Morpholinyl)indolin-1-yl]-2-propylamine Fumarate] |  |  | 5% |  | 69% | EC50 [2, 3]: 5480 nM

Row | Compound | melting point | EC50 [1] | Emax [1] | EC50 [2] | Emax [2] | further results
28 | CC(N)CN1CCc2ccc(C(F)(F)F)cc21 (stereo not shown) (as salt: fumarate) | 154 to 158 °C |  |  |  |  | 
29 | C[C@H](N)CN1CCc2ccc(-c3cccnc3)cc21 (as salt: fumarate) [Example 47] | 155 °C (dec.) |  |  |  |  | 
30 | COc1ccc2c(c1)N(CC(C)N)CC2 (racemic) [Example 2, (RS)-1-(6-Methoxyindolin-1-yl)-2-propylamine Hydrochloride] |  | 1000 nM | 63% | 100 nM | 77% | 
31 | C[C@H](N)CN1CCc2cc(F)c(C(F)(F)F)cc21 [Example 60, (S)-1-(5-Fluoro-6-trifluoromethylindolin-1-yl)-2-propylamine Fumarate] |  |  |  | 36 nM | 81% | 
32 | C[C@@H](N)CN1CCc2cccc(Br)c21 (as salt: fumarate) [Example 19] | 197 °C |  |  |  |  | 
33 | C[C@H](N)CN1CCc2ccc(-c3cccnc3)cc21 [Example 47] |  |  | 5% | 3540 nM | 33% | 
34 | CCCSc1ccc2c(c1)N(C[C@H](C)N)CC2 (as salt: fumarate) [Example 41] | 147 to 148 °C |  |  |  |  | 
35 | Cc1cc2c(cc1Cl)N(C[C@H](C)N)CC2 (as salt: fumarate) [Example 14] | 172 to 174 °C |  |  |  |  | 
36 | CN(C)CCN1CCc2ccc(Cl)cc21 (as salt: fumarate) | 144 to 146 °C |  |  |  |  | 
37 | NCCN1CCc2ccc([N+](=O)[O-])cc21 [Example 53, 2-(6-Nitroindolin-1-yl)-1-ethylamine Fumarate] |  |  | 20% |  | 86% | EC50 ([1]; FLIPR, CHO cells, Fluo-3-AM, read-out: h5-HT2A EC50): 2310 nM; EC50 [2, 3]: 266 nM
38 | CC(N)CN1CCc2cc(OCc3ccccc3)ccc21 (stereo not shown) (as salt: fumarate) (hydrate or solvate) | 143 to 144 °C |  |  |  |  | 
39 | Cc1cccc2c1CCN2C[C@H](C)N (as salt: fumarate) [Example 32] | 161 to 162 °C |  |  |  |  | 
40 | C[C@H](N)CN1CCc2ccc(Cl)c(Cl)c21 (as salt: fumarate) [Example 23] | 176 to 178 °C |  |  |  |  | 
41 | C[C@@H](N)CN1CCc2cccc(Br)c21 [Example 19] |  |  | 21% | 3800 nM | 34% | 
42 | C[C@H](N)CN1CCc2ccc(F)cc21 [Example 9] |  | 5600 nM | 52% | 253 nM | 89% | 
43 | C[C@H](N)CN1CCc2cccc(Br)c21 [Example 20] |  |  | 17% | 750 nM | 68% | 
44 | CCSc1ccc2c(c1)N(C[C@H](C)N)CC2 [Example 40] |  | 836 nM | 64% | 3 nM | 95% | 
45 | CSc1ccc2c(c1)N(C[C@H](C)N)CC2 [Example 39] |  | 260 nM | 75% | 4 nM | 87% | 
46 | Cc1cccc2c1CCN2C[C@H](C)N [Example 32] |  | 1520 nM | 26% | 611 nM | 63% | 
47 | Cc1ccc2c(c1)N(C[C@H](C)N)CC2 [Example 64, (S)-1-(6-Methylindolin-1-yl)-2-propylamine Fumarate] |  |  | 30% | 303 nM | 66% | 
48 | C[C@H](N)CN1CCc2cc(F)cc(Cl)c21 [Example 17] |  | 7500 nM | 40% | 616 nM | 76% | 
49 | C[C@H](N)CN1CCc2c(Cl)cccc21 [Example 38] |  | 2560 nM | 26% | 320 nM | 63% | 
50 | Cc1cc2c(cc1F)CCN2C[C@H](C)N [Example 62, (S)-1-(5-Fluoro-6-methylindolin-1-yl)-2-propylamine Fumarate] |  |  |  | 329 nM | 54% | 
51 | C[C@H](N)CN1CCc2cc(Cl)ccc21 [Example 28] |  | 1540 nM | 63% | 238 nM | 75% | 
52 | C[C@H](N)CN1CCc2cc(F)ccc21 [Example 29] |  | 3170 nM | 18% | 503 nM | 68% | 
53 | CC(C)Sc1ccc2c(c1)N(C[C@H](C)N)CC2 [Example 42] |  | 4200 nM | 43% | 54 nM | 88% | 
